Experimental data as given in US9951064B2, “Azaindazole compounds as inhibitors of T790M containing EGFR mutants” (Genentech, Inc., priority 2013, dated 2018).

Legend:
EGFR del746-750 T790M = biological target: T1, EGFR del746-750 T790M (Homo sapiens, UniProt P00533, DEL746-750/T790M); assay: EGFR del746-750 T790M biochemical assay (Caliper mobility shift); settings: 5 μM ATP; apparent Ki (Morrison fit) converted by Cheng-Prusoff, Km of ATP 2.1 μM; read-out: EGFR(T790M/d746-750) Ki
T1 construct: purchased Carna Biosciences 08-528
T1 sequence (P00533 with tags, fused parts or gaps DEL746-750/T790M limits assumed): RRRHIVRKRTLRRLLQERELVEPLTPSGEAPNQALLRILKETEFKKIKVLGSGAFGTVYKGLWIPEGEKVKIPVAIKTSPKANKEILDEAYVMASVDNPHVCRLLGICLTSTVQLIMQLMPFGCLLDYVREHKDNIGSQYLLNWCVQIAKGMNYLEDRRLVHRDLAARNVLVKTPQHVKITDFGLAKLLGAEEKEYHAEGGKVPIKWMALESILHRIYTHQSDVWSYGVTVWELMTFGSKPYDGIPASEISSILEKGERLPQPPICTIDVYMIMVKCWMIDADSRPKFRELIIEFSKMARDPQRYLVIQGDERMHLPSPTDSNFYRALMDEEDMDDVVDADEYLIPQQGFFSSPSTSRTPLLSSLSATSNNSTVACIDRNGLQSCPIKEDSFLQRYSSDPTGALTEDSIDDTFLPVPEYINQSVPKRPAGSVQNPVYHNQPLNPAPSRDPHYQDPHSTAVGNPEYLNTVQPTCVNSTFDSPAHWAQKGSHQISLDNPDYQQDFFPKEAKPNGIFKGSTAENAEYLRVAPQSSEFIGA
Protocol: The exemplified compounds described herein were tested according to the assay below. The enzyme data reported in Tables 4-5 is generally a representative of multiple experiments.
Reactions proceed for 30 minutes at room temperature (22° C.) and are terminated with 80 mM 2,2′,2″,2″′-(ethane-1,2-diyldinitrilo)tetraacetic acid (EDTA). Product is detected using the Caliper mobility shift detection method where product and substrate are electrophoretically separated and measured.

[1] = test system: H1975 (EGFR T790M/L858R) cell proliferation; assay: H1975 proliferation assay (Cell Titer-Glo); type: cell-based; settings: Homo sapiens, NCI-H1975, 72 h, NCI-H1975 cells, 72 hour incubation, read-out: H1975 antiproliferative EC50
Protocol: H1975 Proliferation Assays
All cell culture reagents were purchased from Invitrogen/Gibco. Cells are cultured at 37° C. at 5% CO2 and split as recommended by ATCC.

EGFR T790M L858R = biological target: T2, EGFR T790M L858R (Homo sapiens, UniProt P00533, L858R/T790M); assay: EGFR T790M L858R biochemical assay (Caliper mobility shift); settings: 5 μM ATP; apparent Ki (Morrison fit) converted by Cheng-Prusoff, Km of ATP 1.3 μM
T2 construct: purchased Life Technologies PV4879
T2 sequence (P00533 25-1210 T790M/L858R): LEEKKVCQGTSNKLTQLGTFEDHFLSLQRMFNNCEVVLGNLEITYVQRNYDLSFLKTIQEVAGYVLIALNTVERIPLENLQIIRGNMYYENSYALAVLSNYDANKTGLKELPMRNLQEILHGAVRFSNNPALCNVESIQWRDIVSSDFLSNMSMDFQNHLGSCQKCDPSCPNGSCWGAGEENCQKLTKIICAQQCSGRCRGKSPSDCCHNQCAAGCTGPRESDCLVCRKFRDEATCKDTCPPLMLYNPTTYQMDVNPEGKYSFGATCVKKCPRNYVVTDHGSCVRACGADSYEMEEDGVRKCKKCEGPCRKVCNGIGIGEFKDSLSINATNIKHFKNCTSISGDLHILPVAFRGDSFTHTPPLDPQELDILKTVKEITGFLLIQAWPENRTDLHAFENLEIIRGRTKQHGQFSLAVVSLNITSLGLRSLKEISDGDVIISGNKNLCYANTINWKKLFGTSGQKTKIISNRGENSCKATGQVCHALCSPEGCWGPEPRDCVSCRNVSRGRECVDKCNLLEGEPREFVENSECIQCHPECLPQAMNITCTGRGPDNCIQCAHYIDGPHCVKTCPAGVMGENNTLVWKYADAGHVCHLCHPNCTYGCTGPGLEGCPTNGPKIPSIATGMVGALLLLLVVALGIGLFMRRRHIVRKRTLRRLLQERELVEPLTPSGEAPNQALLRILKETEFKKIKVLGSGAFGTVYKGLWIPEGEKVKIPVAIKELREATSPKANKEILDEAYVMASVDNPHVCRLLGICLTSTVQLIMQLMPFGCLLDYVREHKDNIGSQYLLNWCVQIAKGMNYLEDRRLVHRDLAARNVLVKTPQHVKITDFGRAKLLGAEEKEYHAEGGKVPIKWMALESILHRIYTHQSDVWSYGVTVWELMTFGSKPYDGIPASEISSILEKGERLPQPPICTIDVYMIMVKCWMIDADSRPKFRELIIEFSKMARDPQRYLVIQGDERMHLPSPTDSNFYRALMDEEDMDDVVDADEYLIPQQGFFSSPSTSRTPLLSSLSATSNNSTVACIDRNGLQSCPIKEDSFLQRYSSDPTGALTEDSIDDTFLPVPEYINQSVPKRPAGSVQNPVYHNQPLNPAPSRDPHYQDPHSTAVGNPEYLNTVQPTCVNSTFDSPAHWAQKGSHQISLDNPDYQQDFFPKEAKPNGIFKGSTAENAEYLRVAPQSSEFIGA
Method in brief: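 Reactions run 30 minutes at room temperature (22 °C), stopped with 80 mM EDTA. Phosphorylated product and substrate separated electrophoretically and quantified by Caliper mobility shift.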

[2] = biological target: T3, phosphor-EGFR in H1975(L585R/T790M) mutant EGFR expressing cells (Homo sapiens, UniProt P00533, L858R/T790M); assay: H1975 pEGFR MSD cellular assay; type: cell-based; settings: NCI-H1975 cells, serum starved, 1 hour compound incubation, pEGFR Tyr1068 MSD; read-out: HI975 pEGFR EC50
T3 construct: host or cells: NCI-H1975
T3 sequence (P00533 25-1210 T790M/L858R): as above
Method in brief: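 NCI-H1975 cells, 30,000/well, serum-starved overnight, then treated 1 hour at 37° C with serially diluted compounds in serum-free medium (0.5% DMSO). Lysates captured on anti-phospho-EGFR plates overnight at 4° C, detected with SULFO-TAG anti-total EGFR by electrochemiluminescence. Inhibition vs untreated controls; EC50 from 4-parameter logistic fit.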

| SMILES | Ki (EGFR del746-750 T790M) [nM] | EC50 [1] [nM] | Ki (EGFR T790M L858R) [nM] | EC50 [2] [nM] |
| --- | --- | --- | --- | --- |
| CO[C@H]1CCN(c2nccc(Nc3cc4c(cn3)c(N3CC5(COC5)C3)nn4C(C)C)n2)C[C@H]1F (racemic) [Example 103, [2-((cis)-(±)-3-Fluoro-4-methoxypiperidin-1-yl)pyrimidin-4-yl]-[1-isopropyl-3-(2-oxa-6-azaspiro[3.3]hept-6-yl)-1H-pyrazolo[4,3-c]pyridin-6-yl]amine] | 3.9 | 248 | 1.1 | 23.1 |
| CC(C)n1nc(N2CC(O)(C(F)(F)F)C2)c2cnc(Nc3ccnc(N4CC[C@H](O)[C@H](F)C4)n3)cc21 (racemic) [Example 129, (±)-cis-3-Fluoro-1-(4-(3-(3-hydroxy-3-(trifluoromethyl)azetidin-1-yl)-1-isopropyl-1H-pyrazolo[4,3-c]pyridin-6-ylamino)pyrimidin-2-yl)piperidin-4-ol] | 6.3 | 2720 | 2.7 | 349 |
| CC(C)n1nc(N2CCCC2=O)c2cnc(Nc3ccnc(N4CC[C@H](O)[C@H](F)C4)n3)cc21 (racemic) [Example 133, (±)-1-(6-(2-(cis-3-Fluoro-4-hydroxypiperidin-1-yl)pyrimidin-4-ylamino)-1-isopropyl-1H-pyrazolo[4,3-c]pyridin-3-yl)pyrrolidin-2-one] | 4.3 | 332 | 1.7 | 150 |
| C[C@@H](n1nc(N2CC[C@@H](O)C2)c2cnc(Nc3ccnc(N4CC[C@](C)(O)[C@H](F)C4)n3)cc21)C(F)(F)F (racemic) [Example 140, (3RS,4SR)-3-Fluoro-1-(4-(3-((R)-3-hydroxypyrrolidin-1-yl)-1-((R*)-1,1,1-trifluoropropan-2-yl)-1H-pyrazolo[4,3-c]pyridin-6-ylamino)pyrimidin-2-yl)-4-methylpiperidin-4-ol] | 6.1 | 649 | 3.1 | 288 |
| CCC(C)n1nc(N2CC3(COC3)C2)c2cnc(Nc3ccnc(N4C[C@@H](F)[C@@H](O)C(C)(C)C4)n3)cc21 (mixture of isomers) [Example 147, (4SR,5RS)-1-(4-((1-(sec-Butyl)-3-(2-oxa-6-azaspiro[3.3]heptan-6-yl)-1H-pyrazolo[4,3-c]pyridin-6-yl)amino)pyrimidin-2-yl)-5-fluoro-3,3-dimethylpiperidin-4-ol] | 3.9 | 227 | 2.4 | 15.8 |
| CC(C)n1nc(N2CC(O)CC2=O)c2cnc(Nc3ccnc(N4CC[C@H](O)[C@H](F)C4)n3)cc21 (mixture of isomers) [Example 173, (±)-1-(6-(2-(cis-3-Fluoro-4-hydroxypiperidin-1-yl)pyrimidin-4-ylamino)-1-isopropyl-1H-pyrazolo[4,3-c]pyridin-3-yl)-4-hydroxypyrrolidin-2-one] | 4.8 | > 10000 | 2 | 1410 |
| CC(C)n1nc(N2CC(F)(F)C2)c2cnc(Nc3ccnc(N4CC[C@H](O)[C@H](F)C4)n3)cc21 (racemic) [Example 174, (±)-cis-1-(4-(3-(3,3-Difluoroazetidin-1-yl)-1-isopropyl-1H-pyrazolo[4,3-c]pyridin-6-ylamino)pyrimidin-2-yl)-3-fluoropiperidin-4-ol] | 3.8 | 801 | 1.8 | 141 |
| CC(C)n1nc(NC(C)(C)C#N)c2cnc(Nc3ccnc(N4CC[C@H](O)[C@H](F)C4)n3)cc21 (racemic) [Example 183, (±)-2-(6-(2-(cis-3-Fluoro-4-hydroxypiperidin-1-yl)pyrimidin-4-ylamino)-1-isopropyl-1H-pyrazolo[4,3-c]pyridin-3-ylamino)-2-methylpropanenitrile] | 76.7 | 8270 | 34.7 | 1650 |
| CC[C@H](C)n1nc(N2CC3(COC3)C2)c2cnc(Nc3ccnc(N4CC[C@](C)(O)[C@H](F)C4)n3)cc21 (relative stereo) [Example 65, (3R*,4S*)-1-{4-[1-((S)-sec-Butyl)-3-(2-oxa-6-azaspiro[3.3]hept-6-yl)-1H-pyrazolo[4,3-c]pyridin-6-ylamino]pyrimidin-2-yl}-3-fluoro-4-methylpiperidin-4-ol] | 9.6 | 874 | 3.6 | 126 |
| CC(n1nc(N2CC[C@@H](O)C2)c2cnc(Nc3ccnc(N4CC[C@](C)(O)[C@H](F)C4)n3)cc21)C(F)(F)F (relative stereo) [Example 79, (3RS,4SR)-3-Fluoro-1-(4-(3-((R)-3-hydroxypyrrolidin-1-yl)-1-((S*)-1,1,1-trifluoropropan-2-yl)-1H-pyrazolo[4,3-c]pyridin-6-ylamino)pyrimidin-2-yl)-4-methylpiperidin-4-ol] | 5.9 | 906 | 3.3 | 165 |
| CC1CN(c2nn(C(C)C)c3cc(Nc4ccnc(N5CC[C@H](O)[C@H](F)C5)n4)ncc23)C(=O)N1 (relative stereo) [Example 127, 1-(6-(2-(cis-3-Fluoro-4-hydroxypiperidin-1-yl)pyrimidin-4-ylamino)-1-isopropyl-1H-pyrazolo[4,3-c]pyridin-3-yl)-4-methylimidazolidin-2-one] | 6 | 1380 | 2.5 | 466 |
| CC1CNC(=O)N1c1nn(C(C)C)c2cc(Nc3ccnc(N4CC[C@H](O)[C@H](F)C4)n3)ncc12 (relative stereo) [Example 128, 1-(6-(2-(cis-3-Fluoro-4-hydroxypiperidin-1-yl)pyrimidin-4-ylamino)-1-isopropyl-1H-pyrazolo[4,3-c]pyridin-3-yl)-5-methylimidazolidin-2-one] | 15.5 | 2040 | 6.2 | 919 |

The next molecules have a lower Ki (EGFR del746-750 T790M) than those just listed; values first:

| Ki (EGFR del746-750 T790M) [nM] | EC50 [1] [nM] | Ki (EGFR T790M L858R) [nM] | EC50 [2] [nM] | SMILES |
| --- | --- | --- | --- | --- |
| 3.3 | 1430 | 1.8 | 261 | CC(C)n1nc(N2CC(F)(CO)C2)c2cnc(Nc3ccnc(N4CC[C@H](O)[C@H](F)C4)n3)cc21 (racemic) [Example 130, (±)-cis-3-Fluoro-1-(4-(3-(3-fluoro-3-(hydroxymethyl)azetidin-1-yl)-1-isopropyl-1H-pyrazolo[4,3-c]pyridin-6-ylamino)pyrimidin-2-yl)piperidin-4-ol] |
| 2.5 | 225 | 1.8 | 22.3 | CC(C)n1nc(N2CC[C@@H](O)C2)c2cnc(Nc3ccnc(N4C[C@@H](F)[C@@H](O)C(C)(C)C4)n3)cc21 (racemic) [Example 148, cis-5-Fluoro-1-(4-(3-((R)-3-hydroxypyrrolidin-1-yl)-1-isopropyl-1H-pyrazolo[4,3-c]pyridin-6-ylamino)pyrimidin-2-yl)-3,3-dimethylpiperidin-4-ol] |
| 2.6 | 766 | 1.4 | 97.8 | CC(C)n1nc(N2CC3(CC(O)C3)C2)c2cnc(Nc3ccnc(N4CC[C@H](O)[C@H](F)C4)n3)cc21 (racemic) [Example 175, (±)-2-(6-((2-((cis)-3-Fluoro-4-hydroxypiperidin-1-yl)pyrimidin-4-yl)amino)-1-isopropyl-1H-pyrazolo[4,3-c]pyridin-3-yl)-2-azaspiro[3.3]heptan-6-ol] |
| 2.9 | 521 | 1.7 | 67.9 | CC[C@H](C)n1nc(N2CC[C@@H](O)C2)c2cnc(Nc3ccnc(N4CC[C@](C)(O)[C@H](F)C4)n3)cc21 (relative stereo) [Example 69, (3R*,4S*)-1-{4-[1-((S)-sec-Butyl)-3-((R)-3-hydroxypyrrolidin-1-yl)-1H-pyrazolo[4,3-c]pyridin-6-ylamino]pyrimidin-2-yl}-3-fluoro-4-methylpiperidin-4-ol] |
| 2.3 | 371 | 2 | 83 | CC[C@H](C)n1nc(N2CC[C@H](O)C2)c2cnc(Nc3ccnc(N4CC[C@](C)(O)[C@H](F)C4)n3)cc21 (relative stereo) [Example 70, (3R*,4S*)-1-{4-[1-((S)-sec-Butyl)-3-((S)-3-hydroxypyrrolidin-1-yl)-1H-pyrazolo[4,3-c]pyridin-6-ylamino]pyrimidin-2-yl}-3-fluoro-4-methylpiperidin-4-ol] |
| 1.9 | 404 | 1.6 | 71.6 | CC(C)n1nc(N2CCC(C)(O)C2)c2cnc(Nc3ccnc(N4CC[C@@H](O)[C@@H](F)C4)n3)cc21 (relative stereo) [Example 104, (3S*,4R*)-3-fluoro-1-(4-((3-(3-hydroxy-3-methylpyrrolidin-1-yl)-1-isopropyl-1H-pyrazolo[4,3-c]pyridin-6-yl)amino)pyrimidin-2-yl)piperidin-4-ol] |
